Experimental findings from patent US11192894B2, “Cell impermeable coelenterazine analogues” (PROMEGA CORPORATION, priority 2016, dated 2021) are described below.

Assay [1] has as its system Nluc-b2 adrenergic receptor (B2AR). Briefly: Bioluminescence imaging of Nluc-B2AR in HeLa cells. The conditions noted are these: 10 uM substrate, Olympus LV200, FIGS. 4A and 4B. The assay is classed as cell-based. The procedure:
FIGS. 4A and 4B show the results of imaging of Nluc-B2AR in HeLa cells using furimazine and JRW-0769. HeLa cells were reverse transfected with an expression construct for Nluc-b2 adrenergic receptor (B2AR) and plated into a LabTEKII chambered coverslip (50,000 cells per well in 400 uL medium) and incubated overnight. For imaging, the medium was removed and replaced with CO2-independent medium. Immediately before placing the sample onto the imaging instrument, Furimazine or JRW-0769 was added to the cells at a final concentration of 10 uM. Image acquisition was performed on an Olympus LV200 bioluminescence imager using a 40×/0.95 NA objective with electromultiplying gain set to 400 and an acquisition time of 0.5 sec (Furimazine) and 2.5 sec (JRW-0769).
HeLa cells were reverse transfected with an expression construct for Nluc-b2 adrenergic receptor (B2AR) and plated into a LabTEKII chambered coverslip (50,000 cells per well in 400 uL medium) and incubated overnight. For imaging, the medium was removed and replaced with CO2-independent medium. Immediately before placing the sample onto the imaging instrument, Furimazine or JRW-0769 was added to the cells at a final concentration of 10 uM. […]

Assay [2] deals with purified NANOLUC® Luciferase (Oplophorus gracilirostris, UniProt Q9GV45, A31E/A60N/A81I/F95D/I117V/K70R/L54V/L99Q/M102K/N193R/P142E/Q151K/Q38R/Q45L/V71I/Y165I). In kind it is biochemical. The conditions noted are these: for RLU at 100 uM: relative value, furimazine set to 1, purified NanoLuc, initial light output three minutes after substrate addition. The procedure:
Each compound to be screened was dissolved in DMSO (5 mM) and then further diluted to 100 uM in NANO-GLO® Luciferase Assay Buffer. Each diluted substrate was then combined in equal volumes with purified NANOLUC® Luciferase diluted into CO2 independent media+10% FBS. Initial light output for each substrate was measured in a GloMax®-Multi+ luminometer three minutes after substrate addition and then at five minute intervals as a means to determine signal half-life. […] Km was calculated using GraphPad Prism using non linear Michaelis-Menten regression.

The subject of a further assay is NanoLuc:KDR. Description: Cell-based luciferase assay, HEK293 cells expressing NanoLuc:KDR (NanoLuc on the cell surface), ± extracellular inhibitor JRW-0344. The conditions noted are these: 10 μM substrate ± 20 μM inhibitor, FIG. 2A. On the procedure:
(§1) FIGS. 2A-2D show extracellular bioluminescent activity of exemplary compounds in HEK293 cells. HEK293 cells were transfected with two different membrane bound NANOLUC® fusions: 1) NanoLuc:KDR, presenting NanoLuc on the outside of the membrane; 2) KDR:NanoLuc, presenting NanoLuc on the inside of the membrane. The cell impermeable NANOLUC® inhibitor JRW-0344 (disclosed in U.S. Ser. No. 15/192,420 to Duellman et al., “THIENOPYRROLE COMPOUNDS AND USES THEREOF,” filed Jun. 24, 2016), was added to the cells to inhibit extracellular bioluminescent activity.
(§2) HEK293 cells were maintained in DMEM containing 100 IU/ml penicillin, 100 μg/ml streptomycin, and 10% fetal calf serum at 37° C. in 5% CO2. Dulbecco's modified eagle medium (DMEM), Opti-MEM, Penicillin/Streptomycin, and Trypsin-EDTA are purchased from Life Technologies (Carlsbad). Fetal calf serum (FBS) is purchased from HyClone (GE Healthcare). Microtiter plates were purchased from Corning.
(§3) HEK293 cells were transiently transfected with two different integral membrane NanoLuc fusion proteins: 1) NanoLuc:KDR, presenting NanoLuc on the cell surface; 2) KDR:NanoLuc, presenting NanoLuc in the interior of the cell. After 24 hours, transfected cells were collected, resuspended in OptiM at 200,000 cell/ml and plated into wells of white, 96-well plates at 100 μL/well. For luminescent measurements, cells were treated with the indicated substrates at a final concentration of 10 μM or 20 μM in the presence or absence of 20 μM cell impermeable NanoLuc inhibitor JRW-0344. The luminescent signal was analyzed 3 minutes after substrate addition using a GLOMAX® Discover multimode detection plate reader (Promega).

Assay [3] concerns KDR:NanoLuc. Briefly: Cell-based luciferase assay, HEK293 cells expressing KDR:NanoLuc (NanoLuc in the interior of the cell), ± extracellular inhibitor JRW-0344. The note with it: HEK293 expressing KDR:Nluc; 10 μM substrate ± 20 μM JRW-0344; FIG. 2C. The procedure:
as §1, §2, §3

Assay [4] relates to KDR:NanoLuc. Briefly: Lytic vs. live cell format, HEK293 cells expressing KDR:NanoLuc. The assay is classed as cell-based. The conditions noted are these: digitonin (lytic) or JRW-0344 (live), FIG. 3C. On the procedure:
FIGS. 3A-D show the activities of cell permeable and cell impermeable compounds at various substrate concentrations. HEK293 cells were transfected (1:100 carrier DNA) with the fusion protein KDR:NanoLuc, which presents membrane bound NanoLuc on the inside of the membrane. Cells were then treated with digitonin (for lytic format) or JRW-0344 (for live cell format). Both sets were treated with varying substrate concentrations to give Michaelis-Menten type plots. […] However, substrates that are cell impermeable (or mostly impermeable) show large differences between live and lytic cell formats (FIG. 3C).
HEK293 cells were transfected (1:100 carrier DNA) with the fusion protein KDR:NanoLuc, which presents membrane bound NanoLuc on the inside of the membrane. Cells were then treated with digitonin to lyse the cell membrane (for lytic format) or JRW-0344 (for live cell format) to compare activity of cell permeable and non-cell permeable substrates. Both sets were treated with varying substrate concentrations to give Michaelis-Menten type plots. […] However, substrates that are cell impermeable (or mostly impermeable) show large differences between live and lytic cell formats (FIG. 3C).

Sequence of purified NANOLUC® Luciferase (Q9GV45 28-196 with tags or gaps with the stated changes limits assumed): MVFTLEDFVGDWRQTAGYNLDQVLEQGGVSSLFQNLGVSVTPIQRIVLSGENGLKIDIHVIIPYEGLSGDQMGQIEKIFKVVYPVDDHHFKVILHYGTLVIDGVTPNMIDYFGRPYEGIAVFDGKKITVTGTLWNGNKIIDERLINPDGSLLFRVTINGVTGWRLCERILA

For the compound `O=c1c(Cc2ccco2)nc2c(Cc3ccccc3)[nH]c(-c3ccccc3)cn1-2` [Furimazine, reference compound], the “Localization of the imaged Nluc-B2AR signal” value in assay [1] is reported as “intracellular Nluc-B2AR”. Also, the “RLU (absolute light output that is set to 1)” value in assay [2] (2.5 ng/mL NanoLuc) is recorded as ~1.0×10^7 RLU. The “RLU at 100 uM” value in assay [2] is given as 1.

Take `O=c1c(Cc2cccc(OCCCCCCS(=O)(=O)[O-])c2)nc2c(Cc3ccccc3)[nH]c(-c3ccccc3)cn1-2.[Na+]` [JRW-0703, sodium 6-(3-((8-benzyl-3-oxo-6-phenyl-3,7-dihydroimidazo[1,2-a]pyrazin-2-yl)methyl)phenoxy)hexane-1-sulfonate]: the “Difference in RLU's in the presence and absence of the extracellular inhibitor” value (“Difference … of the extracellular inhibitor” for short) in the assay on NanoLuc:KDR is listed as “Larger differences in RLU's”. Moreover, the “RLU and effect of the extracellular inhibitor” value in the assay on KDR:NanoLuc [3] is “much dimmer and can be inhibited close to background level”. The “Lowered activity in the live cell format versus lytic format” value in the assay on KDR:NanoLuc [4] was 100 fold. In assay [2], the “RLU at 100 uM” value is 0.016.

Turning to `O=c1c(Cc2ccc(OCCCCCCS(=O)(=O)[O-])c(Cl)c2)nc2c(Cc3ccccc3)[nH]c(-c3ccccc3)cn1-2.[Na+]` [JRW-0728, sodium 6-(4-((8-benzyl-3-oxo-6-phenyl-3,7-dihydroimidazo[1,2-a]pyrazin-2-yl)methyl)-2-chlorophenoxy)hexane-1-sulfonate], the “Difference … of the extracellular inhibitor” value in the assay on NanoLuc:KDR was “Larger differences in RLU's”. Moreover, in the assay on KDR:NanoLuc [3], the “RLU and effect of the extracellular inhibitor” value was “much dimmer and can be inhibited close to background level”. Also, the “Lowered activity in the live cell format versus lytic format” value in the assay with KDR:NanoLuc [4] is on record as 100 fold. For the same compound, the “RLU at 100 uM” value in assay [2] amounted to 0.14.

Regarding `O=c1c(Cc2ccc(OCCCCCCS(=O)(=O)[O-])c(F)c2)nc2c(Cc3ccccc3)[nH]c(-c3ccccc3)cn1-2.[Na+]` [JRW-0769, sodium 6-(4-((8-benzyl-3-oxo-6-phenyl-3,7-dihydroimidazo[1,2-a]pyrazin-2-yl)methyl)-2-fluorophenoxy)hexane-1-sulfonate], the “Difference … of the extracellular inhibitor” value in the assay with NanoLuc:KDR is given as “Larger differences in RLU's”. Moreover, the “RLU and effect of the extracellular inhibitor” value with KDR:NanoLuc [3] was “much dimmer and can be inhibited close to background level”. For the same compound, the “Lowered activity in the live cell format versus lytic format” value in the assay with KDR:NanoLuc [4] was 100 fold. In assay [1], the “Localization of the imaged Nluc-B2AR signal” value is reported as “limited to membrane-localized receptor”. Further, the “RLU at 100 uM” value in assay [2] was determined as 0.1.

For the compound `NCCCCCCOc1cccc(Cc2nc3c(Cc4ccccc4)[nH]c(-c4ccccc4)cn-3c2=O)c1` [TAK-0039, 2-(3-((6-aminohexyl)oxy)benzyl)-8-benzyl-6-phenylimidazo[1,2-a]pyrazin-3(7H)-one], in the assay with NanoLuc:KDR, the “Difference … of the extracellular inhibitor” value was “Small differences in RLU's”. Further, the “RLU and effect of the extracellular inhibitor” value with KDR:NanoLuc [3] was “not affected by the extracellular inhibitor”. The “RLU at 100 uM” value in assay [2] turned out to be 0.0077.
